One assay concerns WT III B. The assay is described as follows: microbe, parasite or virus in culture. Type of assay: cell-based, HIV-1. As to conditions: for fold change: fold change in EC50. As to the method: (§1) The integrase encoding sequence was amplified from either wildtype HIV-1 (IIIB) or NL4.3 virus, or HXB2D site-directed mutant viruses containing mutations in integrase (such as T66I, S153Y, M154I, or combinations thereof) (Hazuda et al., Science 2000, 287, 646-650), or patient samples. Starting from RNA, extracted from virus supernatant or plasma using the QIAamp® viral RNA extraction kit (Qiagen), cDNA was synthesized by reverse transcription (Expand TM reverse transcriptase, 30 min at 42°C) with the primer 3'EGINT10 (SEQ ID NO 11), followed by a nested PCR. The outer PCR was performed with the primers 5'EGINT1 (SEQ ID NO 1) and 3'EGINT10 (SEQ ID NO 11) (ΔR-IN-vif construct) or 5'EGINT3 (SEQ ID NO 4) and 3'EGINT10 (SEQ ID NO 11) (ΔIN construct) (Expand™ High Fidelity PCR system), and 5 µl of the outer product was used for an inner PCR with primers 5'EGINT2 (SEQ ID NO 3) and 3'EGINT11 (SEQ ID NO 12) (ΔR-IN-vif construct) or 5'EGINT4 (SEQ ID NO 5) and 3'EGINT6 (SEQ ID NO 7) (ΔIN construct). In a second protocol the outer primers were identical as described above, the inner primers are 5'EGINT5 (SEQ ID NO 6) and 3'EGINT6 (SEQ ID NO 7). The amplicons can be used for genotyping and phenotyping. Cycling conditions for both PCRs are denaturation for 3 min at 95°C, followed by 30 cycles of 1 min 90°C, 30 sec 55°C, and 2 min 72°C. A final extension was performed at 72°C for 10 min. For recombination, PCR products are purified using the QiaQuick® 96 PCR BioRobot kit (Qiagen), according to the manufacturer's protocol. If the protocol starts from DNA containing the HIV material such as proviral DNA, the reverse transcriptase step is not needed. The nested approach is also not needed when starting from proviral DNA. The obtained amplicons were sequenced using the primers: In_seq1F (SEQ ID NO 17), In_seq2F (SEQ ID NO 18), In_seq3F (SEQ ID NO 19), IN_seq1R (SEQ ID NO 20), IN_seq2R (SEQ ID NO 21), and IN_seq3R (SEQ ID NO 22).
(§2) A ΔR-IN-vif or ΔIN deletion construct was generated by site-directed mutagenesis on the template pSV40HXB2D with the primers MUT-IN1 (SEQ ID NO 13) and MUT-IN2 (ΔR-IN-vif construct) (SEQ ID NO 14) or MUT-IN3 (SEQ ID NO 15) and MUT-IN4 (SEQ ID NO 16) (ΔIN construct) (protocol Site-directed mutagenesis kit, Stratagene). After DpnI digestion for removal of the methylated template DNA, the construct was digested with SmaI and ligated to circulize the plasmid. The plasmid was transformed into competent cells such as Top10 cells, and colonies were screened for the presence of the deletion construct. The IN-deletion construct was checked by sequence analysis with primers 5'EGINT1 (SEQ ID NO 1) or […] and 3'EGINT10 (SEQ ID NO 11) or 3'EGINT11 (SEQ ID NO 12). For use in recombination experiments, large-scale plasmid DNA preparations were linearized by SmaI digestion and recombined with PCR amplified integrase genes from wild type, mutant, or patient viruses. The plasmid containing the integrase deletion (ΔIN) has been deposited pSV40HXB2D-ΔIN. The sequence of said plasmid is 14377 nucleotides long. The ΔR-IN-vif deletion construct is 13975 nucleotides long. The pSV40HXB2D-ΔIN was deposited at the Belgian Coordinated Collections of Micro-Organisms located at the Universiteit Gent - Laboratorium voor Moleculaire Biologie on August 5, 2002 and the accession number is LMBP 4574.
(§3) Recombinant virus was produced by co-transfection by electroporation of the SmaI-linearized IN-deletion construct and the integrase amplicon into MT4 cells or MT4 cells equipped with an LTR driven reporter gene construct. Production of recombinant virus was evaluated by scoring the cytopathogenic effect (CPE) that is induced by HIV-infection of MT4 cells or by the LTR-driven reporter signal induced by HIV infection in MT4 reporter cells.

A further assay deals with NL 4-3. The assay can be described thus: microbe, parasite or virus in culture. It is filed as cell-based, HIV-1. As to conditions: for fold change: fold change in EC50. As to the method:
as §1, §2, §3

Setting [1] is: Human immunodeficiency virus 1, AVE 3, WT III B, primer set 3.
Where [2] appears, read: Human immunodeficiency virus 1, AVE 5, WT III B, primer set 4.
Where [3] appears, read: Human immunodeficiency virus 1, AVE 1, NL 4-3, primer set 3.
Setting [4] is: Human immunodeficiency virus 1, NL43, AVE 4, NL4-3, primer set 4.

The structures appear in SMILES notation. Where two headings read alike, the source gives them in different places.

Consider `c1cc(CN2CCCNCCNCCCNCC2)ccc1CN1CCCNCCNCCCNCC1` [AMD3100], for which the fold change in the assay on WT III B (AVE 3, WT III B, primer set 3) is given as 0,8; with WT III B (AVE 5, WT III B, primer set 4), 0,8; in the assay on NL 4-3 (AVE 1, NL 4-3, primer set 3) it was 0,9; with NL 4-3 (AVE 4, NL4-3, primer set 4), 1,1. Moreover, the EC50 with WT III B (setting [1]) amounted to 44.2 nM; in the assay with WT III B (setting [2]), 41.7 nM; in the assay on NL 4-3 (setting [3]) it was 50.6 nM; in the assay on NL 4-3 (setting [4]) it was 63 nM.

With `CC(C)CN(C[C@@H](O)[C@H](Cc1ccccc1)NC(=O)O[C@H]1CCOC1)S(=O)(=O)c1ccc(N)cc1` [APV, Amprenavir], the fold change in the assay on WT III B (AVE 3, WT III B, primer set 3) was 0,5; in the assay with WT III B (AVE 5, WT III B, primer set 4), 0,7; in the assay with NL 4-3 (AVE 1, NL 4-3, primer set 3) it was 0,6; in the assay on NL 4-3 (AVE 4, NL4-3, primer set 4), 1,3. Further, the EC50 in the assay with WT III B (setting [1]) stood at 46 nM; in the assay with WT III B (setting [2]), 60.6 nM; in the assay with NL 4-3 (setting [3]), 49.6 nM; in the assay on NL 4-3 (setting [4]), 113 nM.

`O=C(O)C1=CC(=C(c2ccc(O)c(C(=O)O)c2)c2ccc(O)c(C(=O)O)c2)C=CC1=O` [ATA]: the fold change with WT III B (AVE 3, WT III B, primer set 3) is on record as 0,4; in the assay on WT III B (AVE 5, WT III B, primer set 4) it was 0,4; in the assay with NL 4-3 (AVE 1, NL 4-3, primer set 3), 0,9; in the assay with NL 4-3 (AVE 4, NL4-3, primer set 4), 1,2. Moreover, the EC50 in the assay with WT III B (AVE 3, WT III B, primer set 3, read-out: EC 50) was determined as 730 nM; in the assay with WT III B (AVE 5, WT III B, primer set 4, read-out: EC 50), 861 nM; with NL 4-3 (AVE 1, NL 4-3, primer set 3, read-out: EC 50), 1960 nM; in the assay on NL 4-3 (AVE 4, NL4-3, primer set 4, read-out: EC 50) it was 2510 nM.

For `Cc1cn([C@H]2C[C@H](N=[N+]=[N-])[C@@H](CO)O2)c(=O)[nH]c1=O` [AZT, Zidovudine], the fold change with WT III B (AVE 5, WT III B, primer set 4) is reported as 0,9; in the assay on NL 4-3 (AVE 1, NL 4-3, primer set 3), 0,9; with NL 4-3 (AVE 4, NL4-3, primer set 4) it was 1,1. Also, the EC50 in the assay with WT III B (setting [2]) was determined as 144 nM; in the assay with NL 4-3 (setting [3]), 143 nM; with NL 4-3 (setting [4]), 182 nM.

Consider `Cc1cc(C#N)cc(C)c1Oc1nc(Nc2ccc(C#N)cc2)nc(N)c1Br` [Compound 1, 4-[[6-amino-5-bromo-2-[(4-cyanophenyl)amino]-4-pyrimidinyl]oxy]-3,5-dimethyl-benzonitrile], for which the EC50 with WT III B (AVE 3, WT III B, primer set 3) was determined as 0.9 nM; in the assay on WT III B (AVE 5, WT III B, primer set 4), 1.2 nM; with NL 4-3 (AVE 1, NL 4-3, primer set 3), 1 nM; in the assay with NL 4-3 (setting [4]), 2.3 nM. For the same compound, the fold change is given as 0,9 in the assay with WT III B (AVE 3, WT III B, primer set 3); 1,2 in the assay with WT III B (AVE 5, WT III B, primer set 4); 1,0 with NL 4-3 (AVE 1, NL 4-3, primer set 3); 2,3 in the assay with NL 4-3 (AVE 4, NL4-3, primer set 4).

On to `Cc1cc(C#N)cc(C)c1Oc1nc(Nc2ccc(C#N)cc2)nc(N)c1Br` [Compound 2, 4-[[6-amino-5-bromo-2-[(4-cyanophenyl)amino]-4-pyrimidinyl]oxy]-3,5-dimethyl-Benzonitrile], for which the EC50 was 2.8 nM in the assay on WT III B (AVE 3, WT III B, primer set 3); 2.9 nM in the assay with WT III B (AVE 5, WT III B, primer set 4); 2.6 nM in the assay on NL 4-3 (AVE 1, NL 4-3, primer set 3); 2.8 nM in the assay on NL 4-3 (AVE 4, NL4-3, primer set 4). For the same compound, the fold change is 0,9 in the assay on WT III B (AVE 3, WT III B, primer set 3); 0,9 in the assay with WT III B (AVE 5, WT III B, primer set 4); 0,8 in the assay with NL 4-3 (AVE 1, NL 4-3, primer set 3); 0,9 in the assay with NL 4-3 (AVE 4, NL4-3, primer set 4).

As for `Nc1ccn([C@@H]2CS[C@H](CO)O2)c(=O)n1` [Compound 3TC, Lamivudine], the fold change in the assay on WT III B (AVE 3, WT III B, primer set 3) was 0,3; in the assay on WT III B (AVE 5, WT III B, primer set 4) it was 1,2; with NL 4-3 (AVE 1, NL 4-3, primer set 3), 0,6; with NL 4-3 (AVE 4, NL4-3, primer set 4), 2,0. Further, the EC50 with WT III B (setting [1]) was 384 nM; in the assay on WT III B (setting [2]) it was 1690 nM; in the assay with NL 4-3 (setting [3]), 820 nM; in the assay on NL 4-3 (setting [4]), 2730 nM.

For the compound `O=c1[nH]cnc2c1ncn2[C@H]1CC[C@@H](CO)O1` [DDI, Didanosine], the fold change is on record as 0,5 in the assay on WT III B (AVE 3, WT III B, primer set 3); 1,6 in the assay on WT III B (AVE 5, WT III B, primer set 4); 0,7 in the assay with NL 4-3 (AVE 1, NL 4-3, primer set 3); 1,6 in the assay with NL 4-3 (AVE 4, NL4-3, primer set 4). The EC50 in the assay with WT III B (setting [1]) turned out to be 2540 nM; in the assay on WT III B (setting [2]), 7500 nM; in the assay on NL 4-3 (setting [3]), 3360 nM; with NL 4-3 (setting [4]) it was 7890 nM.

`CC(C)(C)NC(=O)[C@@H]1CN(Cc2cccnc2)CCN1C[C@@H](O)C[C@@H](Cc1ccccc1)C(=O)N[C@H]1c2ccccc2C[C@H]1O` [IDV, Indinavir]: the fold change is on record as 0,4 in the assay on WT III B (AVE 3, WT III B, primer set 3); 0,9 with WT III B (AVE 5, WT III B, primer set 4); 0,7 in the assay with NL 4-3 (AVE 1, NL 4-3, primer set 3); 1,2 with NL 4-3 (AVE 4, NL4-3, primer set 4). For the same compound, the EC50 in the assay on WT III B (setting [1]) was 18.4 nM; in the assay on WT III B (setting [2]), 41.3 nM; with NL 4-3 (setting [3]), 31.5 nM; in the assay on NL 4-3 (setting [4]) it was 50.7 nM.

The record behind these values is patent publication EP1285971B1, “Methods for the phenotypic and genotypic assessment of the drug sensitivity of HIV integrase variants” (Tibotec Pharmaceuticals Ltd., priority 2001, dated 2003).
